Like-named read-outs stand apart in the source and are kept apart here.
Experiments:
HDAC1 = HDAC1 (Homo sapiens, UniProt Q13547); assay: HDAC biochemical activity measurement (fluorescent substrate deacetylation);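 note: fluorogenic acetyl-lysine substrate (20 µM) deacetylated by HDAC1, then developer releases fluorophore read at 360 nm excitation and 460 nm emission, inhibitor incubated 30 min at 37 °C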
HDAC2 = HDAC2 (Homo sapiens, UniProt Q92769); assay: as above; details: 37° C. 30 minutes;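 note: HDAC2 enzyme with an acetyl-lysine fluorescent substrate, then developer added, fluorescence read at excitation 360 nm and emission 460 nm, inhibition measured across several compound concentrations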
HDAC2, sequence (Q92769 whole entry, species assumed): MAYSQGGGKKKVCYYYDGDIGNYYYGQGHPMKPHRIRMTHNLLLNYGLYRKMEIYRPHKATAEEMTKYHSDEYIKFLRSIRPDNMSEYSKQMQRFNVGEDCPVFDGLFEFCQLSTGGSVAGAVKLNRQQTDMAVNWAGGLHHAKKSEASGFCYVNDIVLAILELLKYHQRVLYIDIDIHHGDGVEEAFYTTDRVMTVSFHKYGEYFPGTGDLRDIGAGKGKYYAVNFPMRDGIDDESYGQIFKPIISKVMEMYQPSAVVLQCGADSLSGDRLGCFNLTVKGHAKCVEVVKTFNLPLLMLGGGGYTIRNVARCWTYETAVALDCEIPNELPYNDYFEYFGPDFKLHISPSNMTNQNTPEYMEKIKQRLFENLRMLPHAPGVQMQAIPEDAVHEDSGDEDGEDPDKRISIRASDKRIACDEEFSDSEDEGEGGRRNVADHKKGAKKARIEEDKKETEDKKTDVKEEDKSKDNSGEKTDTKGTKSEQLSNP

[1] = test system: A549 (human lung cancer cells); assay: MTT cancer cell growth inhibition; format: cell-based; details: Homo sapiens, A549, 72 h, MTT, 72 hours incubation, read-out: GI50 A54
How it was run: (§1)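 GI50 values come from viability measured by MTT reduction at 570 nm. Plated overnight at 1500 cells per well, cultures received drug in three parallel wells across 10^−5–10^−10 M final and were incubated 72 h at 37° C. under 5% CO2 before MTT for 4 h.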

[2] = test system: BGC-823 (human gastric cancer cells); assay: MTT cancer cell growth inhibition; format: cell-based; details: MTT, 72 hours incubation, read-out: GI50 BG
How it was run: as §1

[3] = test system: Bel-7402 (human hepatoma cells); assay: MTT cancer cell growth inhibition; format: cell-based; details: MTT, 72 hours incubation, Bel-7402 cells, read-out: GI50 Bel-7402
How it was run: as §1

[4] = test system: DU145 (human prostate cancer cells); assay: MTT cancer cell growth inhibition; format: cell-based; details: Homo sapiens, DU-145, 72 h, MTT, 72 hours incubation, read-out: GI50 Du1
How it was run: as §1

[5] = test system: H1975 (non-small cell lung adenocarcinoma); assay: MTT cancer cell growth inhibition; format: cell-based; details: MTT, 72 hours incubation, H1975 cells, read-out: GI50 H1975
How it was run: as §1

[6] = test system: HCC827 (human non-small cell lung cancer cells); assay: MTT cancer cell growth inhibition; format: cell-based; details: MTT, 72 hours incubation, HCC827 cells, read-out: GI50 HCC827
How it was run: as §1

[7] = test system: HT1080 (human fibrosarcoma cells); assay: MTT cancer cell growth inhibition; format: cell-based; details: Homo sapiens, HT-1080, 72 h, MTT, 72 hours incubation, read-out: GI50 HT1
How it was run: as §1

[8] = test system: Hela (human cervical cancer cells); assay: MTT cancer cell growth inhibition; format: cell-based; details: Homo sapiens, HeLa, 72 h, MTT, 72 hours incubation, read-out: GI50 Hela
How it was run: as §1

[9] = test system: Huh-7 (human hepatoma cells); assay: MTT cancer cell growth inhibition; format: cell-based; details: MTT, 72 hours incubation, Huh-7 cells, read-out: GI50 Huh-7
How it was run: as §1

[10] = test system: K562 (human leukemia cells); assay: MTT cancer cell growth inhibition; format: cell-based; details: MTT, 72 hours incubation, K562 cells, read-out: GI50 K562
How it was run: as §1

[11] = test system: KBM-5 (human chronic myelogenous leukemia); assay: MTT cancer cell growth inhibition; format: cell-based; details: MTT, 72 hours incubation, KBM-5 cells, read-out: GI50 KBM-5
How it was run: as §1

[12] = test system: KBM5-T315I (human chronic myelogenous leukemia); assay: MTT cancer cell growth inhibition; format: cell-based; details: MTT, 72 hours incubation, KBM5-T315I cells, read-out: GI50 KBM5-T315I
How it was run: as §1

[13] = test system: MCF-7 (human breast cancer cells); assay: MTT cancer cell growth inhibition; format: cell-based; details: Homo sapiens, MCF7, 72 h, 72 hours incubation, read-out: GI50 MCF
How it was run: as §1

[14] = test system: MDA-MB-231 (breast cancer cells); assay: MTT cancer cell growth inhibition; format: cell-based
How it was run: as §1

[15] = test system: MOLT-4 (human acute lymphoblastic leukemia cells); assay: MTT cancer cell growth inhibition; format: cell-based; details: Homo sapiens, MOLT-4, 72 h, MTT, 72 hours incubation, read-out: GI50 Mol
How it was run: as §1

[16] = test system: N-87 (human gastric cancer cells); assay: MTT cancer cell growth inhibition; format: cell-based; details: MTT, 72 hours incubation, N-87 cells, read-out: GI50 N-87
How it was run: as §1

[17] = test system: PANC-1 (Pac-1, human pancreatic cancer cells); assay: MTT cancer cell growth inhibition; format: cell-based; details: Homo sapiens, PANC-1, 72 h, MTT, 72 hours incubation, read-out: GI50 PAN
How it was run: as §1

[18] = test system: SGC-7901 (human gastric cancer cells); assay: MTT cancer cell growth inhibition; format: cell-based; details: MTT, 72 hours incubation, SGC-7901 cells, read-out: GI50 SGC-7901
How it was run: as §1

[19] = test system: U937 (human leukemia cells); assay: MTT cancer cell growth inhibition; format: cell-based; details: Homo sapiens, U-937, 72 h, MTT, 72 hours incubation, read-out: GI50 U93
How it was run: as §1

[20] = test system: lncap (prostate cancer cells); assay: MTT cancer cell growth inhibition; format: cell-based; details: Homo sapiens, LNCaP, 72 h, MTT, 72 hours incubation, read-out: GI50 lnca
How it was run: as §1

HDAC3 = HDAC3 (Homo sapiens, UniProt O15379); assay: HDAC biochemical activity measurement (fluorescent substrate deacetylation);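 note: fluorogenic acetyl-lysine substrate (20 µM) deacetylated by HDAC3, then developer added for 15 min at room temperature, release of fluorophore read at excitation 360 nm, emission 460 nm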
HDAC3, sequence (O15379 whole entry, species assumed): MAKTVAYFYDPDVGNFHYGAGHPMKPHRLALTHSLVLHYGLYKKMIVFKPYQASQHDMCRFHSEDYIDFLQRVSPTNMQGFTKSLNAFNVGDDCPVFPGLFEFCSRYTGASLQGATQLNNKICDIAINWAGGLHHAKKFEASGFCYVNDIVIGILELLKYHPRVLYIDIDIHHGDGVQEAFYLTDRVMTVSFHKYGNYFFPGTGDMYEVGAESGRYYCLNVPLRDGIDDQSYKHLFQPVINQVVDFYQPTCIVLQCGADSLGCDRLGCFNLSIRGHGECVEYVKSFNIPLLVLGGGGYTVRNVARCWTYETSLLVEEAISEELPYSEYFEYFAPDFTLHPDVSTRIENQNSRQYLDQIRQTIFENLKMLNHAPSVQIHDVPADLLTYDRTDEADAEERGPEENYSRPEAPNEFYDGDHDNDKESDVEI
HDAC3, sequence (Q9Y618 395-489 partner limits assumed, species assumed): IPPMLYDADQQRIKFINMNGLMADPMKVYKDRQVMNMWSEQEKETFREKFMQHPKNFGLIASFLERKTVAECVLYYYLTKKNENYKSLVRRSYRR

[21] = HDAC1, 37° C. 30 minutes, read-out: IC50 HDAC1
[22] = Homo sapiens, MDA-MB-231, 72 h, read-out: GI50 MDA-MB-231, MTT, 72 hours incubation, MDA-MB-231 cells

HDAC1, sequence (Q13547 whole entry, species assumed): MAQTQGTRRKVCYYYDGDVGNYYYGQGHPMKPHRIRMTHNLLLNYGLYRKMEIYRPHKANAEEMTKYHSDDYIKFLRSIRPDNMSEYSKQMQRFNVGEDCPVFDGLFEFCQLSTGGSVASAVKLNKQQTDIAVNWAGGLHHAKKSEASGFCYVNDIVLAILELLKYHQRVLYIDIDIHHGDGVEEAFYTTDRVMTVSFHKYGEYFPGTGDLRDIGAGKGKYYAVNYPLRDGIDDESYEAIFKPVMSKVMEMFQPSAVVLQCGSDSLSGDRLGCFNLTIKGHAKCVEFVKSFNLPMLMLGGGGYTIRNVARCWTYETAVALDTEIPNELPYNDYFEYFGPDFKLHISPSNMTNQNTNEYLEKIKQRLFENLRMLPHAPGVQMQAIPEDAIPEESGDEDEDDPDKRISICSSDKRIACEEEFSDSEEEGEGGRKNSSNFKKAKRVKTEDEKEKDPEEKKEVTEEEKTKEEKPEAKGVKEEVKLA

IC50 (HDAC1; [21]) [nM] | IC50 (HDAC2) [nM] | GI50 [1] [nM] | GI50 ([3]; Homo sapiens, Bel-7402, 72 h) [nM] | GI50 [4] [nM] | GI50 ([5]; Homo sapiens, NCI-H1975, 72 h) [nM] | GI50 ([6]; Homo sapiens, HCC827, 72 h) [nM] | GI50 [7] [nM] | GI50 [8] [nM] | GI50 ([9]; Homo sapiens, Huh-7, 72 h) [nM] | GI50 ([10]; Homo sapiens, K562, 72 h) [nM] | GI50 ([11]; Homo sapiens, KBM5, 72 h) [nM] | GI50 ([12]; Homo sapiens, 72 h) [nM] | GI50 [13] [nM] | GI50 [14, 22] [nM] | GI50 [15] [nM] | GI50 ([16]; Homo sapiens, 72 h) [nM] | GI50 [17] [nM] | GI50 ([18]; Homo sapiens, SGC-7901, 72 h) [nM] | GI50 [19] [nM] | Structure (SMILES) | further results
71 | 26 | 40 | 43 | 30 | 29 | 43 | 40 | 80 | 24 | 39 | 81 | 56 | 50 | 24 | 20 | 61 | 40 | 49 | 20 | C/C=C1\NC(=O)c2ccc(F)c(n2)CNC(=O)C[C@@H](/C=C/CCSC(=O)CC)OC(=O)[C@H](C(C)C)NC1=O [Example 47] | GI50 ([2]; Homo sapiens, BGC-823, 72 h): 60 nM; GI50 [20]: 20 nM; IC50 (HDAC3): 39 nM
51 | 26 | 50 | 57 | 40 | 38 | 49 | 90 | 30 | 89 | 33 | 79 | 68 | 20 | 20 | 30 | 96 | 90 | 26 | 50 | C/C=C1\NC(=O)c2cc(F)cc(n2)CCNC(=O)C[C@@H](/C=C/CCSC(C)=O)OC(=O)[C@H](C(C)C)NC1=O [Compound 104] | GI50 ([2]; Homo sapiens, BGC-823, 72 h): 10 nM; GI50 [20]: 30 nM; IC50 (HDAC3): 43 nM
66 | 93 | – | 35 | – | 56 | 38 | – | – | 21 | 42 | 8 | 43 | – | 23 | – | 45 | – | 63 | – | C/C=C1\NC(=O)c2nc(ccc2SC)CNC(=O)C[C@@H](/C=C/CCS)OC(=O)[C@H](C)NC1=O [Compound 232] | GI50 ([1]; A549 cells): 30 nM; GI50 ([2]; Homo sapiens, BGC-823, 72 h, BGC-823 cells): 50 nM; GI50 ([4]; DU145 cells): 50 nM; GI50 ([7]; HT1080 cells): 20 nM; GI50 ([8]; Hela cells): 30 nM; GI50 ([13]; MCF-7 cells): 80 nM; GI50 ([15]; MOLT-4 cells): 50 nM; GI50 ([17]; PANC-1 cells): 10 nM; GI50 ([19]; U937 cells): 90 nM; GI50 ([20]; lncap cells): 30 nM; IC50 (HDAC3): 21 nM
74 | 24 | 60 | 51 | 20 | 43 | 51 | 50 | 90 | 34 | 29 | 99 | 63 | 60 | 34 | 30 | 49 | 50 | 64 | 40 | C/C=C1\NC(=O)c2nc(ccc2F)CNC(=O)C[C@@H](/C=C/CCSC(=O)CCCCCCC)OC(=O)[C@H](CC)NC1=O [Example 54] | GI50 ([2]; Homo sapiens, BGC-823, 72 h): 40 nM; GI50 [20]: 30 nM; IC50 (HDAC3): 34 nM
81 | 15 | 60 | – | 20 | – | – | 40 | 70 | – | – | – | – | 60 | – | 30 | – | 40 | – | 20 | C/C=C1\NC(=O)c2nc(ccc2F)CNC(=O)C[C@@H](/C=C/CCSC(C)=O)OC(=O)[C@H](C(C)C)NC1=O [Example 48] | GI50 [2]: 80 nM; GI50 [3]: 42 nM; GI50 [5]: 28 nM; GI50 [6]: 42 nM; GI50 [9]: 35 nM; GI50 [10]: 28 nM; GI50 [11]: 76 nM; GI50 [12]: 61 nM; GI50 ([14]; read-out: GI50 MDA-MB-231, MTT, 72 hours incubation, MDA-MB-231 cells): 35 nM; GI50 [16]: 81 nM; GI50 [18]: 69 nM; GI50 [20]: 30 nM; IC50 (HDAC3): 47 nM
187 | 55 | 3800 | 95 | 420 | 53 | 59 | 10800 | 370 | 65 | 35 | 54 | 37 | 490 | 78 | 59700 | 44 | 42100 | 42 | 11300 | C/C=C1\NC(=O)c2cccc(n2)CNC(=O)C[C@@H](/C=C/CCSC(C)=O)OC(=O)[C@H](Cc2ccc(O)cc2)NC1=O [Compound 18] | IC50 (HDAC1; Table 3, read-out: IC50 HDAC1, D (non-substituent)): 187 nM; GI50 ([2]; Homo sapiens, BGC-823, 72 h): 53100 nM; GI50 [20]: 10300 nM; IC50 (HDAC3; read-out: IC50 HDAC3, HDAC3, 37° C. 30 minutes): 67 nM
41 | 58 | 50 | 94 | 50 | 34 | 94 | 90 | 90 | 49 | 53 | 93 | 57 | 50 | 49 | 40 | 59 | 90 | 51 | 30 | C/C=C1\NC(=O)c2nc(ccc2F)CNC(=O)C[C@@H](/C=C/CCSC(C)=O)OC(=O)[C@H](C)NC1=O [Example 63] | GI50 ([2]; Homo sapiens, BGC-823, 72 h): 50 nM; GI50 [20]: 40 nM; IC50 (HDAC3): 39 nM
